The results in this text go back to ChEMBL document CHEMBL4842359, “1,3-Diarylpyrazolyl-acylsulfonamides as Potent Anti-tuberculosis Agents Targeting Cell Wall Biosynthesis in Mycobacterium tuberculosis” (J Med Chem, 2021).

≈ marks a conversion by molar mass, not a printed value.

Usually solubility (thermodynamic) stands for the concentration in solution at equilibrium with solid. For orientation: logD means the decadic logarithm of the distribution of all forms, ionised or not, between an organic phase and buffer at a given pH. One may read the Vd as a proportionality between amount in the body and measured concentration, not a real space. What is called fraction unbound is the share of the substance not bound to proteins or other matrix. In general, bioavailability refers to the share of a dose that reaches the circulation, judged against a reference dose that is usually intravenous. A word on the IC90: it is the concentration at which the effect reaches the 90% level. In general, IC50 refers to the midpoint of a concentration-inhibition curve. Low readings indicate greater potency in that assay, high ones weaker potency in that assay.

Series [1] in a line: Thermodynamic solubility of compound at pH 7.4 aqueous phosphate buffer.
Series [2] in a line: Lipophilicity, logD of the compound at pH 7.4 by HPLC-DAD analysis. The format is physicochemical. As to conditions: buffer.
Series [3] can be described thus: Metabolic stability in human liver microsomes assessed as compound remaining at 1 uM by LC-MS/MS analysis. The series is classed as ADME, Microsome. The note with it: for Stabilty: microsomes, 1 µM. On the technique in general: Microsomes from liver hold many membrane-bound enzymes, among them those of drug oxidation.
Series [4] can be described thus: Metabolic stability in rat liver microsomes assessed as compound remaining at 1 uM by LC-MS/MS analysis. The format is ADME, Microsome. As to conditions: for Stabilty: microsomes, 1 µM.
Series [5] is described as follows: Metabolic stability in mouse liver microsomes assessed as compound remaining at 1 uM by LC-MS/MS analysis. The format is ADME, Microsome. As to conditions: for Stabilty: microsomes, 1 µM.
Series [6] can be described thus: Unbound clearance in iv dosed C57BL/6 mouse measured up to 24 hrs by LC-MS/MS analysis. The series is classed as ADME, organism-based. The note with it: in vivo.
The nature of series [7]: AUC (0 to t) in iv dosed C57BL/6 mouse measured up to 24 hrs by LC-MS/MS analysis. The series is classed as ADME, organism-based. Further details: time <=24. As to conditions: in vivo.
A short description of series [8]: Dru metabolism in iv dosed mouse assessed as metabolite in blood. The format is ADME, organism-based. As to conditions: in vivo.
The nature of series [9]: Dru metabolism in iv dosed mouse assessed as metabolite in urine. The format is ADME, organism-based. The note with it: in vivo.
Series [10] in a line: Dru metabolism in iv dosed mouse assessed as metabolite in feces. The format is ADME, organism-based. The note with it: in vivo.
Series [11] in a line: Terminal half life in iv dosed C57BL/6 mouse measured up to 24 hrs by LC-MS/MS analysis. The series is classed as ADME, organism-based. As to conditions: in vivo; for beta t1/2: mouse, 24 h.
Series [12] can be described thus: Volume of distribution in iv dosed C57BL/6 mouse measured up to 24 hrs by LC-MS/MS analysis. The series is classed as ADME, organism-based. As to conditions: in vivo.
In series [13] the test system is Mycobacterium tuberculosis. The series is described as follows: microbe, parasite or virus in culture. The note with it: H37RvMA.
Description: Antimycobacterial activity against drug-susceptible Mycobacterium tuberculosis H37RvMA by MIGIT method
Series [14] deals with Mycobacterium tuberculosis. The series is described as follows: microbe, parasite or virus in culture. As to conditions: S2371.
Description: Antimycobacterial activity against drug-susceptible Mycobacterium tuberculosis S2371 by MIGIT method
Series [15] relates to Mycobacterium tuberculosis. Put plainly: microbe, parasite or virus in culture. As to conditions: S1125.
Description: Antimycobacterial activity against drug-susceptible Mycobacterium tuberculosis S1125 by MIGIT method
Series [16] is described as follows: Plasma protein binding in human assessed as unbound fraction at 5 uM by LC-MS/MS analysis. The format is ADME, cell-free. As to conditions: for Fu: 5 µM.
The subject of series [17] is Mycobacterium tuberculosis. The series is described as follows: microbe, parasite or virus in culture. The note with it: H37Rv, 336 h.
Description: Antimycobacterial activity against Mycobacterium tuberculosis H37Rv in presence of middlebrook 7H9/glucose/BSA/tyloxapol medium measured after 14 days by bioluminescence reporter assay
Series [18] in a line: Oral bioavailability in mouse. The series is classed as ADME, organism-based. The note with it: in vivo.
Series [19] has as its system Mycobacterium tuberculosis. Put plainly: animal or person. The format is functional. The note with it: time 7 day.
The nature of series [20]: Toxicity in BALB/c mouse assessed as tolerability at 200 mg/kg, po once a day treatment initiated 7 days after infection for 12 consecutive days. The series is classed as organism-based. As to conditions: in vivo, 168 h, time 7 day.
Series [21] has as its system Mycobacterium tuberculosis. The series is described as follows: microbe, parasite or virus in culture. The note with it: H37RvMA, 336 h.
Description: Antimycobacterial activity against Mycobacterium tuberculosis H37RvMA in presence of middlebrook 7H9/glucose/BSA/tyloxapol medium measured for 2 weeks by bioluminescence reporter assay
The test system of series [22] is Mycobacterium tuberculosis. Put plainly: microbe, parasite or virus in culture. As to conditions: 336 h.
Description: Antimycobacterial activity against Mycobacterium tuberculosis delta cyd in presence of middlebrook 7H9/glucose/BSA/tyloxapol medium measured for 2 weeks by bioluminescence reporter assay
Series [23] concerns Mycobacterium tuberculosis. The format is functional. The note with it: H37Rv.
Series [24] concerns HepG2. The series is described as follows: Cytotoxicity against human HepG2 cells under glucose containing medium. The series is classed as cell-based.
Series [25] deals with HepG2. Put plainly: Cytotoxicity against human HepG2 cells under galactose containing medium. The format is cell-based.
Where [26] appears, read: liver microsomes, read-out: Stabilty.

In [1], `CS(=O)(=O)NC(=O)NCc1cn(-c2ccc(Cl)cc2)nc1-c1ccncc1` displayed a thermodynamic solubility of 150 µM (≈ 60.9 µg/mL). The compound also came in with a logD in [2] of 0.81. Also, the results for the Stabilty in series [3], in [4] and in [5] were 99%, 98% and 91%, respectively. For the same compound, the CL free in series [6] was found to be 4878 mL/min/kg. Moreover, in series [7], the AUCt is 29 µmol·min/L. Besides, the Drug metabolism entry in [8], in series [9] and in [10] was “Metabolite_Notdetected” in each case.

As to `CS(=O)(=O)NC(=O)CCc1cn(-c2ccc(Br)cc2)nc1-c1ccncc1`, the solubility (thermodynamic) in [1] worked out at 185 µM (≈ 83.1 µg/mL). The logD in series [2] amounted to 0.93. In addition, the results for the Stabilty in series [3], in series [4] and in series [5] were 85%, 94% and 79%, respectively. Also, the “beta t1/2” value in series [11] turned out to be 1.3 h. For the same compound, the volume of distribution (Vd) in [12] (C57BL/6, mouse, read-out: Vd) was 0.1 L/kg. In addition, in series [6], the CL free was over 20000 mL/min/kg. In addition, in series [7], the AUCt was determined as 15 µmol·min/L. Also, the MIC is at most 15 µM in series [13], 30 µM (≈ 13.5 µg/mL) in series [14] and 15 µM (≈ 6.74 µg/mL) in [15].

Take `CS(=O)(=O)NC(=O)CCc1cn(-c2ccc(C(F)(F)F)nc2)nc1-c1ccc(Cl)cc1`: in series [1], the thermodynamic solubility was 90 µM (≈ 42.6 µg/mL). For the same compound, the logD in [2] worked out at 1.87. Further, the values for the Stabilty in [3], in series [4] and in series [5] were 94%, 98% and 94%, respectively. Also, in series [16], the Fu is recorded as 0.036 fraction. Besides, in series [11], the “beta t1/2” value worked out at 3 h. In [12] (mouse, 24 h), this compound showed a Vd of 8.7 L/kg. This compound also showed a CL free in [6] of 1872 mL/min/kg. The same compound gave an AUCt in [7] of 134 µmol·min/L. The same compound had an MIC in series [17] of 4.7 µM (≈ 2.22 µg/mL).

For `CS(=O)(=O)NC(=O)CCc1cn(-c2ccc(Cl)cc2)nc1-c1ccc(Cl)cc1`, the thermodynamic solubility in [1] is 100 µM (≈ 43.8 µg/mL). Also, the logD in series [2] (read-out: logD) turned out to be 2. For the same compound, the remaining at 1 µM in series [3] (setting [26]) is 98%; in [4] (setting [26]), over 99%; in series [5] (setting [26]), 87%. Also, the fraction unbound at 5 µM in series [16] is 0.023. In addition, the half-life in series [11] (C57BL/6, mouse, read-out: beta t1/2 (converted)) was 216 min. In series [12] (C57BL/6, mouse, read-out: Vd), the Vd was 1.2 L/kg. The CL free in series [6] came out at 111 mL/min/kg. Besides, the AUCt in series [7] is 4883 µmol·min/L. In series [18], the bioavailability was over 95%. The MIC at 200 mg/kg in series [19] (Mycobacterium tuberculosis, Erdman, in Mus musculus, po, 168 h) worked out at 9.1 µM (≈ 3.99 µg/mL). In addition, the fIC50 in series [19] (dose 200 mg/kg) amounted to 11 µM. Besides, in series [20], the Activity entry is recorded as “Non-Toxic”. For the same compound, the MIC in series [17] was determined as 4.7 µM (≈ 2.06 µg/mL); in series [21], 4 µM (≈ 1.75 µg/mL); in series [22], 4 µM (≈ 1.75 µg/mL).

Take `CS(=O)(=O)NC(=O)CCc1cn(-c2ccc(Br)cc2)nc1-c1cccnc1`: the thermodynamic solubility in [1] is 200 µM (≈ 89.9 µg/mL). For the same compound, the pH-dependent lipophilicity (logD) in [2] was found to be 0.84. For the same compound, the values for the Stabilty in series [3], in series [4] and in series [5] were 37%, 95% and 94%, respectively. The Fu in series [16] was 0.022 fraction. In series [11], the “beta t1/2” value is 1.7 h. The same compound gave a Vd in series [12] (mouse, 24 h) of 28.1 L/kg. Moreover, the CL free in series [6] turned out to be 8091 mL/min/kg. In addition, the AUCt in series [7] turned out to be 31 µmol·min/L. The same compound showed an MIC in [17] of 6.25 µM (≈ 2.81 µg/mL).

The compound `CS(=O)(=O)NC(=O)CCc1cc(-c2ccc(Br)cc2)nn1-c1ccc(Cl)cc1` gave a solubility (thermodynamic) in series [1] of 200 µM (≈ 96.6 µg/mL). Also, the pH-dependent lipophilicity (logD) in series [2] worked out at 2.1. Further, the results for the Stabilty in [3], in [4] and in [5] were over 99%, 87% and 91%, respectively. Moreover, the Fu in [16] came out at 0.01 fraction. Moreover, in [11], the “beta t1/2” value came to 3.6 h. For the same compound, the Vd in [12] (mouse, 24 h) stood at 1 L/kg. For the same compound, the CL free in [6] is 313 mL/min/kg. Also, the AUCt in series [7] amounted to 1359 µmol·min/L. The same compound had an MIC in series [17] of 6.25 µM (≈ 3.02 µg/mL).

`CS(=O)(=O)NC(=O)CCc1cn(-c2ccc(Br)cc2)nc1-c1ccc(Cl)cc1`: in [23], it took 6.25 µM to reach the 90% level (IC90). Also, the concentration for half-maximal inhibition (IC50) in the series with HepG2 [24] and with HepG2 [25] was over 50 µM throughout. In series [1], this compound returned a solubility (thermodynamic) of 170 µM (≈ 82.1 µg/mL). Further, the logD in series [2] is 2.4. For the same compound, the values for the Stabilty in series [3], in [4] and in series [5] were 90%, 74% and 71%, respectively. This compound showed a Vd in series [12] (mouse, 24 h) of 0.2 L/kg. Also, in series [6], the CL free stood at 295 mL/min/kg. Also, the AUCt in [7] stood at 3527 µmol·min/L.

With `CS(=O)(=O)NC(=O)CCc1cn(-c2ccc(Br)cc2)nc1C1CCOCC1`, in series [1], the solubility (thermodynamic) came to 200 µM (≈ 91.3 µg/mL). Further, the logD in [2] came to 0.55. For the same compound, the Stabilty in series [3] turned out to be 86%; in series [4] it was 83%; in [5], 77%. The Fu in series [16] is given as 0.07 fraction. The “beta t1/2” value in [11] is 2.3 h. Also, the Vd in series [12] (mouse, 24 h) worked out at 29.3 L/kg. The same compound had a CL free in series [6] of 2071 mL/min/kg. Besides, the AUCt in series [7] is 31 µmol·min/L. In addition, the MIC in [17] turned out to be 9.4 µM (≈ 4.29 µg/mL).

Turning to `CCc1cc(C(N)=S)ccn1` [ETHIONAMIDE], the MIC in series [21] is 15.6 µM (≈ 2.59 µg/mL).
